Consider 22 molecules from US10173982B2, “Picolinamides as fungicides” (Dow AgroSciences LLC, priority 2016, dated 2019).

Assay [1] deals with Puccinia triticina. In words: Fungicidal activity: wheat brown rust (PUCCRT), percent disease control on wheat seedlings. The note with it: for pest or weed control at 100 ppm / pest or weed control at 121.5 g/ha: Puccinia triticina; for pest or weed control at 100 ppm / PUCCRT 3DC disease control rating / PUCCRT 1DP disease control rating: HV (high volume) activity at 100 ppm; for pest or weed control at 121.5 g/ha: LV (low volume) activity at 121.5 g/H. The class given is in vivo. Here is the method: Technical grades of materials were dissolved in acetone, which were then mixed with nine volumes of water containing 110 ppm Triton X-100. The fungicide solutions were applied onto wheat seedlings using an automated booth sprayer to run-off. All sprayed plants were allowed to air dry prior to further handling. All fungicides were evaluated using the aforementioned method for their activity vs. all target diseases, unless stated otherwise. Wheat leaf blotch and brown rust activity were also evaluated using track spray applications, in which case the fungicides were formulated as EC formulations, containing 0.1% Trycol 5941 in the spray solutions. Wheat plants (variety Yuma) were grown from seed in a greenhouse in 50% mineral soil/50% soil-less Metro mix until the first leaf was fully emerged, with 7-10 seedlings per pot. These plants were inoculated with an aqueous spore suspension of Puccinia triticina either prior to or after fungicide treatments. After inoculation the plants were kept in a dark dew room at 22° C. with 100% relative humidity overnight to permit spores to germinate and infect the leaf. The plants were then transferred to a greenhouse set at 24° C. for disease to develop. Fungicide formulation, application and disease assessment followed the procedures as described in the Example A. Results of the evaluations are shown below in Table 4.

The test system of assay [2] is Zymoseptoria tritici. Kind of assay: Fungicidal activity: leaf blotch of wheat (SEPTTR), percent disease control on wheat seedlings. In kind it is in vivo. The note with it: for pest or weed control at 100 ppm / pest or weed control at 121.5 g/ha: Zymoseptoria tritici; for pest or weed control at 100 ppm / SEPTTR 1DP disease control rating / SEPTTR 3DC disease control rating: HV (high volume) activity at 100 ppm; for pest or weed control at 121.5 g/ha: LV (low volume) activity at 121.5 g/H. The method, then: Technical grades of materials were dissolved in acetone, which were then mixed with nine volumes of water containing 110 ppm Triton X-100. The fungicide solutions were applied onto wheat seedlings using an automated booth sprayer to run-off. All sprayed plants were allowed to air dry prior to further handling. All fungicides were evaluated using the aforementioned method for their activity vs. all target diseases, unless stated otherwise. Wheat leaf blotch and brown rust activity were also evaluated using track spray applications, in which case the fungicides were formulated as EC formulations, containing 0.1% Trycol 5941 in the spray solutions. Wheat plants (variety Yuma) were grown from seed in a greenhouse in 50% mineral soil/50% soil-less Metro mix until the first leaf was fully emerged, with 7-10 seedlings per pot. These plants were inoculated with an aqueous spore suspension of Zymoseptoria tritici either prior to or after fungicide treatments. After inoculation the plants were kept in 100% relative humidity (one day in a dark dew chamber followed by two to three days in a lighted dew chamber at 20° C.) to permit spores to germinate and infect the leaf. The plants were then transferred to a greenhouse set at 20° C. for disease to develop. When disease symptoms were fully expressed on the 1st leaves of untreated plants, infection levels were assessed on a scale of 0 to 100 percent disease severity. Percent disease control was calculated using the ratio of disease severity on treated plants relative to untreated plants.

Where [3] appears, read: 24 h, 1 Day Protectant, read-out: PUCCRT 1DP disease control rating.
The mark [4] stands for this setting: 72 h, 3 Day Curative, read-out: PUCCRT 3DC disease control rating.
Setting [5] is: 24 h, 1 Day Protectant, read-out: SEPTTR 1DP disease control rating.
[6] abbreviates: 72 h, 3 Day Curative, read-out: SEPTTR 3DC disease control rating.

Read-outs that look alike come from different tables or passages of the source.

Regarding `COc1ccnc(C(=O)N[C@@H](C)C(=O)O[C@@H](C)[C@H](Sc2cccc(Cl)c2)c2ccccc2)c1O` [Compound 35], the pest or weed control at 100 ppm in assay [1] (setting [3]) was > 80%; in assay [1] (setting [4]), > 80%; in assay [2] (setting [5]) it was ≤ 80%; in assay [2] (setting [6]) it was ≤ 80%.

As to `COc1ccnc(C(=O)N[C@@H](C)C(=O)O[C@@H](C)[C@H](Sc2ccc(C)cc2)c2ccccc2)c1O` [Compound 36], the pest or weed control at 100 ppm in assay [1] (setting [3]) was > 80%; in assay [1] (setting [4]) it was > 80%; in assay [2] (setting [5]), ≤ 80%; in assay [2] (setting [6]) it was ≤ 80%.

In the case of `COc1ccnc(C(=O)N[C@@H](C)C(=O)O[C@@H](C)[C@H](Sc2ccc(F)cc2)c2ccccc2)c1O` [Compound 37], the pest or weed control at 100 ppm in assay [1] (setting [3]) was ≤ 80%; in assay [1] (setting [4]) it was ≤ 80%; in assay [2] (setting [5]), ≤ 0%; in assay [2] (setting [6]), ≤ 80%.

Consider `COc1ccnc(C(=O)N[C@@H](C)C(=O)O[C@@H](C)[C@H](Sc2ccc(F)cc2C)c2ccccc2)c1O` [Compound 38], for which the “PUCCRT 3DC disease control rating” value in assay [1] (3 Day Curative) is “A (>80)”. Also, the pest or weed control at 100 ppm in assay [1] (setting [3]), in assay [2] (setting [5]) and in assay [2] (setting [6]) was > 80% in each case.

As for `COc1ccnc(C(=O)N[C@@H](C)C(=O)O[C@@H](C)[C@H](Sc2ccccc2)c2ccc(F)cc2)c1O` [Compound 39], the pest or weed control at 100 ppm in assay [1] (setting [3]), in assay [1] (setting [4]), in assay [2] (setting [5]) and in assay [2] (setting [6]) was > 80% throughout.

Consider `CCc1cc(F)ccc1[C@@H](Sc1ccccc1)[C@H](C)OC(=O)[C@H](C)NC(=O)c1nccc(OC)c1O` [Compound 40], for which the “PUCCRT 3DC disease control rating” value in assay [1] (3 Day Curative) is “A (>80)”. Moreover, the pest or weed control at 100 ppm in assay [1] (setting [3]), in assay [2] (setting [5]) and in assay [2] (setting [6]) was > 80% in each case.

For `COc1ccnc(C(=O)N[C@@H](C)C(=O)O[C@@H](C)[C@@H](c2ccccc2)S(=O)(=O)c2ccc(F)cc2)c1O` [Compound 41], the pest or weed control at 100 ppm in assay [1] (setting [3]) is ≤ 0%; in assay [1] (setting [4]) it was ≤ 0%; in assay [2] (setting [5]), ≤ 80%; in assay [2] (setting [6]), ≤ 80%.

Take `COc1ccnc(C(=O)N[C@@H](C)C(=O)O[C@@H](C)[C@@H](c2ccccc2)[S+]([O-])c2ccc(F)cc2)c1O` (stereo partly shown) [Compound 42]: the pest or weed control at 100 ppm was ≤ 0% in assay [1] (setting [3]), ≤ 0% in assay [1] (setting [4]), ≤ 0% in assay [2] (setting [5]) and ≤ 80% in assay [2] (setting [6]).

Regarding `COc1ccnc(C(=O)N[C@@H](C)C(=O)O[C@@H](C)[C@H](Sc2ccc(C)cc2C)c2ccccc2)c1O` [Compound 44], the pest or weed control at 100 ppm in assay [1] (setting [3]) is > 80%; in assay [1] (setting [4]) it was ≤ 80%; in assay [2] (setting [5]), > 80%; in assay [2] (setting [6]), ≤ 80%.

As for `COc1ccnc(C(=O)N[C@@H](C)C(=O)O[C@@H](C)[C@H](SCc2ccccc2)c2ccccc2)c1O` [Compound 45], the pest or weed control at 100 ppm was ≤ 80% in assay [1] (setting [3]), ≤ 80% in assay [1] (setting [4]), ≤ 0% in assay [2] (setting [5]) and ≤ 80% in assay [2] (setting [6]).

As to `COc1ccnc(C(=O)N[C@@H](C)C(=O)O[C@@H](C)[C@H](SC(C)C)c2ccccc2)c1O` [Compound 46], the pest or weed control at 100 ppm was ≤ 80% in assay [1] (setting [3]), ≤ 80% in assay [1] (setting [4]), ≤ 0% in assay [2] (setting [5]) and > 80% in assay [2] (setting [6]).

As for `COc1ccnc(C(=O)N[C@@H](C)C(=O)O[C@@H](C)[C@H](SCC(C)C)c2ccccc2)c1O` [Compound 47], the pest or weed control at 100 ppm in assay [1] (setting [3]) is ≤ 80%; in assay [1] (setting [4]), ≤ 80%; in assay [2] (setting [5]) it was ≤ 0%; in assay [2] (setting [6]), > 80%.

As to `COc1ccnc(C(=O)N[C@@H](C)C(=O)O[C@@H](C)[C@@H](c2ccccc2)S(=O)(=O)Cc2ccccc2)c1O` [Compound 48], the pest or weed control at 100 ppm was ≤ 0% in assay [1] (setting [3]), ≤ 0% in assay [1] (setting [4]), ≤ 80% in assay [2] (setting [5]) and ≤ 80% in assay [2] (setting [6]).

On to `COc1ccnc(C(=O)N[C@@H](C)C(=O)O[C@@H](C)[C@H](Sc2ccc(F)cc2C)c2ccc(F)cc2C)c1O` [Compound 49], for which the pest or weed control at 100 ppm in assay [1] (setting [3]) was > 80%; in assay [1] (setting [4]), ≤ 80%; in assay [2] (setting [5]), > 80%; in assay [2] (setting [6]), > 80%.

As for `COc1ccnc(C(=O)N[C@@H](C)C(=O)O[C@@H](C)[C@H](Sc2ccccc2)c2ccc(F)cc2C)c1O` [Compound 51], the pest or weed control at 100 ppm is > 80% in assay [1] (setting [3]), ≤ 80% in assay [1] (setting [4]), > 80% in assay [2] (setting [5]) and > 80% in assay [2] (setting [6]).

Take `COc1ccnc(C(=O)N[C@@H](C)C(=O)O[C@@H](C)[C@H](Sc2ccc(C(F)(F)F)cn2)c2ccccc2)c1O` [Compound 52]: the pest or weed control at 100 ppm was ≤ 80% in assay [1] (setting [3]), ≤ 80% in assay [1] (setting [4]), ≤ 0% in assay [2] (setting [5]) and ≤ 80% in assay [2] (setting [6]).

With `COc1ccnc(C(=O)N[C@@H](C)C(=O)O[C@@H](C)[C@H](Sc2ccccc2)c2ccc(C)cc2)c1O` [Compound 53], the pest or weed control at 100 ppm in assay [1] (setting [3]), in assay [1] (setting [4]), in assay [2] (setting [5]) and in assay [2] (setting [6]) was > 80% each time.

As to `COc1ccnc(C(=O)N[C@@H](C)C(=O)O[C@@H](C)[C@H](Sc2ccccc2)c2ccccc2)c1O` [Compound 54], the pest or weed control at 100 ppm is > 80% in assay [1] (setting [3]), ≤ 80% in assay [1] (setting [4]), ≤ 80% in assay [2] (setting [5]) and > 80% in assay [2] (setting [6]).

For `COc1ccnc(C(=O)N[C@@H](C)C(=O)O[C@@H](C)[C@H](Sc2ccc(F)cc2C)c2ccccc2)c1O` [Compound 55], in assay [1] (1 Day Protectant), the “PUCCRT 1DP disease control rating” value is listed as “A (>80)”. Further, the “PUCCRT 3DC disease control rating” value in assay [1] (3 Day Curative) is “D (≤0)”. Moreover, the “SEPTTR 1DP disease control rating” value in assay [2] (1 Day Protectant) is on record as “A (>80)”. In addition, in assay [2] (3 Day Curative), the “SEPTTR 3DC disease control rating” value is “B (≤80)”.

As to `CCc1cc(F)ccc1[C@@H](Sc1ccccc1)[C@H](C)OC(=O)[C@H](C)NC(=O)c1nccc(OC)c1O` [Compound 57], in assay [1] (1 Day Protectant), the “PUCCRT 1DP disease control rating” value is “A (>80)”. Further, the “PUCCRT 3DC disease control rating” value in assay [1] (3 Day Curative) is given as “D (≤0)”. For the same molecule, the “SEPTTR 1DP disease control rating” value in assay [2] (1 Day Protectant) is recorded as “B (≤80)”. Besides, the “SEPTTR 3DC disease control rating” value in assay [2] (3 Day Curative) is recorded as “A (>80)”.

For `CCc1cc(F)ccc1[C@@H](Sc1ccccc1)[C@H](C)OC(=O)[C@H](C)NC(=O)c1nccc(OC)c1OC(C)=O` [Compound 59], the pest or weed control at 121.5 g/ha in assay [1] (setting [3]) was > 80%; in assay [1] (setting [4]) it was ≤ 80%; in assay [2] (setting [5]), ≤ 80%; in assay [2] (setting [6]), ≤ 80%.

On to `COc1ccnc(C(=O)N[C@@H](C)C(=O)O[C@@H](C)[C@H](Sc2ccc(F)cc2C)c2ccccc2)c1OC(C)=O` [Compound 60], for which the pest or weed control at 121.5 g/ha is > 80% in assay [1] (setting [3]), ≤ 80% in assay [1] (setting [4]), > 80% in assay [2] (setting [5]) and ≤ 0% in assay [2] (setting [6]).
